# Measured values: patent US20080125498A1, “TREATMENT OF NEURODEGENERATIVE DISEASES AND CONDITIONS USING PAR1 ANTAGONISTS” (priority 2001, published 2008)
# What was measured:
# PAR1 [1] = experiment: PI hydrolysis in hippocampal slices; type: cell-based, mouse; details: wild type hippocampus / hippocampal slices
# Text: PAR1 is a seven transmembrane G-protein coupled receptor that stimulates G-alpha-q to initiate phosphatidyl inositol (PI) hydrolysis. To ensure that PAR1 is functional in regions of the brain that are subject to ischemic damage in the mouse transient focal ischemia model, we tested the ability of several activators of PAR1 to initiate PI hydrolysis (Chung et al., 1997) in the hippocampus and striatum.
# Since tPA activates plasminogen to form plasmin, we tested whether exogenously applied tPA could activate endogenous plasminogen in brain slices to form plasmin and activate PAR1.
# hippocampal slices = experiment: Transmitted light measurements in hippocampal slices (extracellular volume fraction); type: cell-based, rat; details: 3-7 U/ml thrombin, 10-20 minutes
# Method: Rat hippocampal slices were prepared as described above, and were bathed in a submerged chamber with 0.5 micromolar TTX, and 3-7 U/ml thrombin in 0.5 micromolar TTX applied for 10-20 minutes. The intensity of transmitted light (450-490 nm) through hippocampal slices was monitored as an indication of extracellular volume fraction (Andrew and MacVicar, Imaging cell volume changes and neuronal excitation in the hippocampal slice. Neuroscience 62: 371-383, 1994). Images were recorded using a Princeton Micromax CCD camera (Trenton, N.J.; 0.2 sec exposure every 20 to 40 sec) and analyzed using Axon Imaging Workbench 2.1 software (Foster City, Calif.). Intensity was expressed as I/Io where Io is the intensity of transmitted light prior to treatment. Solutions were made hyperosmotic by addition of 30 mM mannitol, which can produce a 10% expansion of the extracellular volume fraction (McBain et al. Regional variation of extracellular space in hippocampus. Science 249: 674-677, 1990). Hypoosmotic solutions were obtained by addition of 10% v/v water.
# NMDA receptor [2] = experiment: Whole cell patch recording of NMDA-evoked currents in hippocampal slice CA1 pyramidal neurons; type: cell-based, rat; details: for average peak potentiation by thrombin: 1.4 mM Mg2+, n=19
# NR1 subunit [3] = experiment: NMDA receptor subunit immunoblots of thrombin-treated brain membranes; type: biochemical, rat
# Method: (§1) NMDA receptor subunit immunoblots. Human embryonic kidney (HEK) cells were maintained in DMEM supplemented with 0.5 mM glutamine, 1 mM pyruvate, penicillin, streptomycin, and 10% fetal bovine serum in a humidified environment with 5% CO2, and transfected with 1 microgram/ml of NR1 or 1:2 microgram/ml NR1:NR2 cDNA. Cells were washed in ice-cold HEPES buffered saline (HBS), scraped on ice, and membranes isolated by centrifugation at 12,000×g. […] Adult rat brain regions were dissected, frozen in liquid nitrogen, homogenized in ice-cold HEPES buffered saline (HBS), centrifuged, and stored at −20° C. Membranes were resuspended in HBS and treated with thrombin or buffer for 30 min at 37° C. Samples were centrifuged, and the membrane pellet resuspended in 2% sodium dodecylsulphate (SDS), 62.5 mM Tris, 10% glycerol, 5% beta-mercaptoethanol, 0.05% bromophenol blue (pH 6.8); some samples were treated with IOU DNase for 10 min at 37° C. SDS/polyacrylamide gel electrophoresis (SDS/PAGE) and protein blotting to Immobilon-P membranes was performed as described (Lau and Huganir, Differential tyrosine phosphorylation of N-methyl-D-aspartate receptor subunits. J Biol Chem 270: 20036-20041, 1995). Membranes were blocked for 30 min in 0.2 M Tris base, 1.37 M NaCl, pH 7.4, containing 5% nonfat dry milk, and incubated overnight at 4° C. in primary antibodies: NR1 mAb54.1 (gift from Dr. S. Heinemann, Salk Institute, La Jolla Calif.), NR1 alt-C-terminal (Upstate Biotechnology, Lake Placid, N.Y.), NR2A C-terminal (Chemicon, Temecula, Calif.), or NR2B C-terminal (Upstate Biotechnology). Membranes were washed 3×, and incubated with HRP-conjugated goat anti-mouse or goat anti-rabbit antibodies (1:10,000), washed 3×, and developed using enhanced chemiluminescence. The percent of receptor cleaved by thrombin was determined using densitometry.
# NMDA receptor [4] = experiment: Two electrode voltage clamp of recombinant NMDA receptors with or without PAR1 in Xenopus oocytes; type: cell-based, Xenopus laevis
# Method: Expression and recording of NMDA and PAR1 receptor function in Xenopus laevis oocvtes. cRNA was synthesized from linearized template cDNA according to manufacturer specifications (Ambion, Austin, Tex.). Xenopus oocytes were removed from ovaries of female frogs anesthetized with 0.3% 3-aminobenzoic acid ethylester. Groups of 20-30 stage V-VI oocytes were incubated in 292 U/ml Worthington (Freehold, N.J.) Type IV collagenase for 2 hours with slow shaking. The oocytes were rinsed in Barth's solution, and stored at 17° C. in Barth's solution supplemented with 100 microgram/ml gentamycin and 40 microgram/ml streptomycin. Control oocytes were injected with 3 ng NR1 subunit and 7 ng NR2B subunit. Other oocytes were injected with the NMDA receptor subunits plus 3 ng PAR1 cRNA. Two electrode voltage clamp recordings were made 3-7 days post-injection. Oocytes were continually perfused with recording solution (in mM, 90 NaCl, 1 KCl, 10 HEPES, pH 7.4) and held under voltage clamp at −30 to −50 mV with an OC-725B amplifier (Warner Instruments, Hamden, Conn.). Recording solution was supplemented with 1.0 mM CaCl2 during initial impalement of the oocytes and subsequently 0.5 mM BaCl2 during recording to reduce the calcium-activated chloride current endogenous to oocytes. […] NMDA receptor currents were evoked by 20 micromolar glutamate/10 micromolar glycine perfused for 0.5-1 minute. […] Expression of PAR1 protein was verified by a thrombin or SFLLRN-stimulated rapidly desensitizing inward current at −30 mV that reflects the Ca^2+-activated Cl^− current endogenous to the oocyte. To test the ability of thrombin to modify NMDA receptor function in oocytes, recordings of receptor function were made both before and after a 15-60 min incubation in recording solution supplemented with thrombin in Eppendorf tubes at room temperature. […] Oocytes with responses less than 50 nA were not included in the analysis.
# NMDA receptor [5] = experiment: Whole cell patch recording of NMDA-evoked currents in hippocampal CA1 pyramidal cells of wild-type and PAR1-/- mice; type: cell-based, mouse
# NR1 subunit [6] = experiment: NMDA receptor subunit immunoblots of thrombin-treated brain membranes; type: biochemical, rat; remark: listed apart in the source
# NR1 subunit [7] = target: T1, NR1 subunit (Rattus norvegicus, UniProt P35439); experiment: Thrombin cleavage of recombinant NR1 subunits in HEK 293 cells (immunoblot); type: biochemical; details: 10-1000 U/ml thrombin
# T1 construct: expressed in transfected cells; host or cells: HEK 293 cells, transient transfection; isolated membranes treated with thrombin
# Method: as §1, with “Membranes were blocked for 30 min in 0.2 M Tris base, 1.37 M NaCl, pH 7.4, containing 5% nonfat dry milk, and incubated overnight at 4° C. in primary antibodies: NR1 mAb54.1 (gift from Dr. S. Heinemann, Salk Institute, La Jolla Calif.), NR1 alt-C-terminal (Upstate Biotechnology, Lake Placid, N.Y.), NR2A C-terminal (Chemicon, Temecula, Calif.), or NR2B C-terminal (Upstate Biotechnology). Membranes were washed 3×, and incubated with HRP-conjugated goat anti-mouse or goat anti-rabbit antibodies (1:10,000), washed 3×, and developed using enhanced chemiluminescence.” left out
# PAR1 [8] = type: cell-based, rat
substance,measurement,setting,value
thrombin,PI hydrolysis,PAR1 [1],increased PI hydrolysis
same,intensity of transmitted light I/Io,hippocampal slices; stratum pyramidale,1.00±0.01
same,intensity of transmitted light I/Io,hippocampal slices; stratum radiatum,1.01±0.01
same,peak potentiation of NMDA responses,"NMDA receptor [2]; 30 nM (3 U/ml) thrombin, -70 mV, within 20 minutes, n=21",2.07±0.27 fold
same,average peak potentiation by thrombin,NMDA receptor [2]; -40 mV,1.48±0.11 fold
same,average peak potentiation by thrombin,NMDA receptor [2]; -70 mV,2.10±0.29 fold
same,thrombin potentiation of the NMDA response,"NMDA receptor [2]; cells excluded for low input resistance or increased series resistance, n=12",1.8±0.2 fold
same,thrombin-induced potentiation,"NMDA receptor [2]; cells held at 0 mV, briefly stepped to -70 mV, n=7",2.7±0.7 fold
same,NR1 subunits cleaved,"NR1 subunit [3]; 1-3 micromolar thrombin, all brain regions except striatum",100%
same,molecular weight shift of NR2A or NR2B subunits,"NR1 subunit [3]; brain membranes, 3-300 U/ml thrombin",did not induce any observable molecular weight shift
same,cleavage of NR1 subunits,"NR1 subunit [3]; cerebellar, cortical and brainstem membranes, 300 nM thrombin (30 U/ml)",insensitive to cleavage
same,NR1 cleaved,"NR1 subunit [3]; striatal membranes, 30 nM thrombin (3 U/ml)",50%
same,maximal observed cleavage of NR1,"NR1 subunit [3]; striatum, 1-3 micromolar thrombin",52%
same,potentiation of NR1-1a/NR2A receptors coexpressed with PAR1,"NMDA receptor [4]; 3 nM thrombin, n=6",1.68±0.11 fold
same,potentiation of NR1-1a/NR2A receptors coexpressed with PAR1,"NMDA receptor [4]; 300 μM thrombin (so in the source), n=7",1.37±0.08 fold
same,current response amplitude after incubation,"NMDA receptor [4]; 300-1000 nM thrombin, 60 minutes, n=7, buffer controls 78±5%",42±9%
same,ratio of NMDA receptor-mediated current after to before application,"NMDA receptor [4]; NR1-1a/NR2B, oocytes without PAR1, n=9",0.87±0.04
same,PAR1 potentiation of NR1-1a(C798A)/NR2B receptors,"NMDA receptor [4]; control oocytes lacking PAR1, n=5",0.98±0.05
same,cleavage of NR1 subunit,NMDA receptor [4]; low concentrations of thrombin (0.3-3 nM),did not produce any cleavage
same,response amplitude of NR1/NR2A and NR1/NR2B receptors vs buffer,"NMDA receptor [4]; oocytes lacking thrombin receptors, 3 U/ml, 15 minutes, 23 C",no significant difference
same,PAR1 potentiation of NR1-1a(C798A)/NR2B receptors,"NMDA receptor [4]; oocytes with PAR1, n=7",1.35±0.07
same,potentiation of NR2A containing receptors,"NMDA receptor [4]; presence of 10 micromolar EDTA, n=12",2.01±0.17 fold
same,"amplitude of NMDA receptor responses, NR1-1a with NR2c or NR2D",NMDA receptor [4]; thrombin activation of PAR1,unaffected
same,NMDA receptor responses,"NMDA receptor [5]; PAR1-/- C57B1/6 mice, thrombin application",did not significantly increase
same,potentiation of responses to pressure-applied NMDA plus glycine,"NMDA receptor [5]; wild-type C57B1/6 mice, 3 U/ml thrombin",robust potentiation
same,predicted cleavage of NR1 protein,"NR1 subunit [6]; 15 minute treatment of slices at 23 C, 3 U/ml, extrapolated assuming linear time, Q10 2.5",1%
same,NR1 cleavage product in CA1 region microdissected from slices,NR1 subunit [6]; 15 minutes of 3 U/ml thrombin application at 23 C,no NR1 cleavage product was observed
same,NR1 subunit cleaved,"NR1 subunit [6]; hippocampal membranes, 30 nM thrombin (3 U/ml), 1 hour at 37 C",20%
same,cleavage of recombinant NR1-1b and NR1-1b/NR2B receptors,NR1 subunit [7],cleaved both homomeric NR1-1b receptors
same,Fluo-3 fluorescence in soma and dendrites,PAR1 [8],robust increase
